We go through 3 compounds from PMC5732040 (Cellular signalling, 2017).

The target in one data set is hA2AR (Homo sapiens, UniProt P29274). As to the kind of experiment: Cell-free membrane-based cAMP assay. To be noted: HEK293-hA2AR cytosol-free membrane preparations, ADA 3 U/ml, 30 min, NBMPR 0–300 μM. The data set is classed as biochemical.
Data set [1] deals with T1, human A2AR (Homo sapiens, UniProt P29274). As to the kind of experiment: Cell-based cAMP assay in CHO-hA2AR cells. The settings on record: 10 min.
Data set [2] deals with TNF-α production by LPS-stimulated splenic monocytes. As to the kind of experiment: Cytokine assay: LPS-stimulated TNF-α production by splenic monocytes. To be noted: for inhibition of TNF-α production: CGS 21680 alone; for inhibition at 30 µM / inhibition at 100 µM: Mus musculus, Monocyte, 4 h. The data set is classed as cell-based, mouse.
For data set [3], the system named is CCL4 production by LPS-stimulated splenic monocytes. As to the kind of experiment: Cytokine assay: LPS-stimulated CCL4 production by splenic monocytes. The format is cell-based, mouse. The settings on record: absence of ADA, single agents.
The target of data set [4] is T1, human A2AR. As to the kind of experiment: ERK1/2 phosphorylation assay in CHO-hA2AR cells. To be noted: inosine 1000 μM, AEA061 10 μM, 10 min.
Data set [5] deals with CCL3 production by LPS-stimulated splenic monocytes. As to the kind of experiment: Cytokine assay: LPS-stimulated CCL3 production by splenic monocytes. The format is cell-based, mouse. To be noted: A2AR intact and deficient monocytes, absence of ADA.
The conditions of data set [6]: cited from earlier work.

Where a name gives a salt, the structure may show the parent alone. Read-outs that look alike come from different tables or passages of the source.

T1 sequence (P29274 whole entry): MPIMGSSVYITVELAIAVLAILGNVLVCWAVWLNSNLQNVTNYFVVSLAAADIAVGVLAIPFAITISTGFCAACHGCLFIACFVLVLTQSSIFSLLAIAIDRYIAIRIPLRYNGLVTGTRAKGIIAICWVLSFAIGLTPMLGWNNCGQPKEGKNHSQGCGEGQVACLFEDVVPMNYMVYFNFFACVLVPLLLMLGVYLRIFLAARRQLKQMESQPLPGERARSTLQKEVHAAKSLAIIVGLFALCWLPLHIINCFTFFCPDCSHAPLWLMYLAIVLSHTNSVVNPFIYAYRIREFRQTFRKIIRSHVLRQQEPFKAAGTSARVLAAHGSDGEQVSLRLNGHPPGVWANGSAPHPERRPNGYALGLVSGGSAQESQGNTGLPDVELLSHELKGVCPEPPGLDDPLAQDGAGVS
Sequence of hA2AR (P29274 whole entry): as above

With `O=[N+]([O-])c1ccc(CSc2ncnc3c2ncn3[C@@H]2O[C@H](CO)[C@@H](O)[C@H]2O)cc1` [NBMPR, 6-S-[(4-Nitrophenyl)methyl]-6-thioinosine], the figures for the cAMP production result on hA2AR and on human A2AR [1] (without ADA) were “dose-dependently increased cAMP production” and “activated A2AR-mediated cAMP production”, respectively.

For `CCNC(=O)[C@H]1O[C@@H](n2cnc3c(N)nc(NCCc4ccc(CCC(=O)O)cc4)nc32)[C@H](O)[C@@H]1O` [CGS 21680, 4-[2-[[6-Amino-9-(N-ethyl-β-D-ribofuranuronamidosyl)-9H-purin-2-yl]amino]ethyl] benzenepropanoic acid hydrochloride], the “inhibition of TNF-α production” value was determined as 6.7% in data set [2] (LPS-stimulated A2AR deficient monocytes, absence of ADA) and 39% in data set [2] (LPS-stimulated A2AR-intact monocytes, absence of ADA).

What is called half-life is the time in which the quantity being followed falls by half. As for `OC[C@H]1O[C@@H](n2cnc3c(O)ncnc32)[C@H](O)[C@@H]1O` [inosine], the “inhibition of CCL4 production” value in data set [3] is “individually inhibited CCL4 production”. In addition, the ERK1/2 phosphorylation result on human A2AR [4] is “increased ERK1/2 phosphorylation”. Further, the “inhibition of CCL3 production” value in data set [5] is recorded as “closely resembles that of TNF-α”. In data set [6], the half-life is on record as 15 h. Also, in data set [2] (LPS-stimulated A2AR intact monocytes, absence of ADA), the “inhibition of TNF-α production as single agent” value is recorded as “dose-dependently inhibited TNF-α production”. For the same compound, the inhibition at 30 µM in data set [2] (read-out: inhibition of LPS-stimulated TNF-α production, A2AR deficient monocytes, absence of ADA, 30 μM, 4 h) was determined as 5.2 ± 1.3%; in data set [2] (read-out: inhibition of LPS-stimulated TNF-α production, A2AR deficient monocytes, presence of ADA 3 U/ml, 30 μM, 4 h), 5.2 ± 2.2%; in data set [2] (read-out: inhibition of LPS-stimulated TNF-α production, A2AR intact monocytes, absence of ADA, 30 μM, 4 h), 18.6 ± 3.7%; in data set [2] (read-out: inhibition of LPS-stimulated TNF-α production, A2AR intact monocytes, presence of ADA 3 U/ml, 30 μM, 4 h) it was 13.2 ± 1.9%. Also, the inhibition at 100 µM in data set [2] (read-out: inhibition of LPS-stimulated TNF-α production, A2AR deficient monocytes, absence of ADA, 100 μM, 4 h) is 16.3 ± 0.7%; in data set [2] (read-out: inhibition of LPS-stimulated TNF-α production, A2AR deficient monocytes, presence of ADA 3 U/ml, 100 μM, 4 h), 12.4 ± 1.2%; in data set [2] (read-out: inhibition of LPS-stimulated TNF-α production, A2AR intact monocytes, absence of ADA, 100 μM, 4 h), 30.1 ± 1.3%; in data set [2] (read-out: inhibition of LPS-stimulated TNF-α production, A2AR intact monocytes, presence of ADA 3 U/ml, 100 μM, 4 h), 16.8 ± 1.6%. In addition, the cAMP production entry at human A2AR [1] (in the presence of ADA 3 U/ml) is given as “increased cAMP production”.
